Assay results reported in ChEMBL document CHEMBL4680293, “Tubulin inhibitory activity of a novel colchicine-binding compounds based on a dinaphthospiropyranran scaffold” (Bioorg Med Chem, 2021).
Activity calls are given as the source filed them. No cut-off for these calls is given here.

Legend:
MOLT-4 = experiment: Anti-cancer activity against human MOLT-4 cells assessed as cell growth inhibition measured after 48 hrs by SRB method; type: functional, cell-based
786-0 = experiment: Anti-cancer activity against human 786-0 cells assessed as cell growth inhibition measured after 48 hrs by SRB method; type: functional, cell-based
[1] = Anti-cancer activity against human central nervous system cells assessed as cell growth inhibition measured after 48 hrs by SRB method; type: functional; settings: CNS cell
SK-MEL-5 = experiment: Anti-cancer activity against human SK-MEL-5 cells assessed as cell growth inhibition measured after 48 hrs by SRB method; type: functional, cell-based
HOP-92 = experiment: Anti-cancer activity against human HOP-92 cells assessed as cell growth inhibition measured after 48 hrs by SRB method; type: functional, cell-based
CCRF-CEM = experiment: Anti-cancer activity against human CCRF-CEM cells assessed as cell growth inhibition measured after 48 hrs by SRB assay; type: functional, cell-based
SW-620 = experiment: Anti-cancer activity against human SW-620 cells assessed as cell growth inhibition measured after 48 hrs by SRB method; type: functional, cell-based
SNB-19 = experiment: Anti-cancer activity against human SNB-19 cells assessed as cell growth inhibition measured after 48 hrs by SRB method; type: functional, cell-based
NCI/ADR-RES = experiment: Anti-cancer activity against human NCI/ADR-RES cells assessed as cell growth inhibition measured after 48 hrs by SRB method; type: functional, cell-based
HL-60(TB) = experiment: Anti-cancer activity against human HL-60(TB) cells assessed as cell growth inhibition measured after 48 hrs by SRB method; type: functional, cell-based
NCI-H522 = experiment: Anti-cancer activity against human NCI-H522 cells assessed as cell growth inhibition measured after 48 hrs by SRB method; type: functional, cell-based
[2] = Anti-cancer activity against human non-small lung cancer cells assessed as cell growth inhibition measured after 48 hrs by SRB method; type: functional; settings: Non-small cell lung cancer cell line
MDA-MB-468 = experiment: Anti-cancer activity against human MDA-MB-468 cells assessed as cell growth inhibition measured after 48 hrs by SRB method; type: functional, cell-based
U-251 = experiment: Anti-cancer activity against human U251 cells assessed as cell growth inhibition measured after 48 hrs by SRB method; type: functional, cell-based
SF-268 = experiment: Anti-cancer activity against human SF-268 cells assessed as cell growth inhibition measured after 48 hrs by SRB method; type: functional, cell-based
SNB-75 = experiment: Anti-cancer activity against human SNB-75 cells assessed as cell growth inhibition measured after 48 hrs by SRB method; type: functional, cell-based
SN12C = experiment: Anti-cancer activity against human SN12C cells assessed as cell growth inhibition measured after 48 hrs by SRB method; type: functional, cell-based
UACC-62 = experiment: Anti-cancer activity against human UACC-62 cells assessed as cell growth inhibition measured after 48 hrs by SRB method; type: functional, cell-based
RXF 393 = experiment: Anti-cancer activity against human RXF 393 cells assessed as cell growth inhibition measured after 48 hrs by SRB method; type: functional, cell-based
SF-539 = experiment: Anti-cancer activity against human SF-539 cells assessed as cell growth inhibition measured after 48 hrs by SRB method; type: functional, cell-based
[3] = Anti-cancer activity against human melanoma cells assessed as cell growth inhibition measured after 48 hrs by SRB method; type: functional; settings: Melanoma cell line
NCI-H226 = experiment: Anti-cancer activity against human NCI-H226 cells assessed as cell growth inhibition measured after 48 hrs by SRB method; type: functional, cell-based
Tubulin (Homo sapiens) = Tubulin (Homo sapiens) (UniProt P68371+Q9H4B7+P0DPH7+P68366+Q13509+Q71U36+P04350+Q3ZCM7+P07437+P68363+Q9BQE3+Q6PEY2+Q13885+Q9BVA1+Q9BUF5); experiment: Inhibition of tubulin (unknown origin) assessed as inhibition of tubulin polymerization at 10 uM measured for 50 mins by fluorescence based analysis; type: protein-complex assay
SF-295 = experiment: Anti-cancer activity against human SF-295 cells assessed as cell growth inhibition measured after 48 hrs by SRB method; type: functional, cell-based
HOP-62 = experiment: Anti-cancer activity against human HOP-62 cells assessed as cell growth inhibition measured after 48 hrs by SRB method; type: functional, cell-based
K562 = experiment: Anti-cancer activity against human K562 cells assessed as cell growth inhibition measured after 48 hrs by SRB method; type: functional, cell-based
[4] = time 48 hrs, read-out: LC50 (the source's name)

## C1=C2CNCC3=Cc4c(ccc5ccccc45)OC23Oc2ccc3ccccc3c21
MOLT-4; MOLT-4, 48 h
  IC50: 5.13 µM
MOLT-4; MOLT-4, time 48 hrs
  GI50: 2.88 µM
  LC50: 4 µM
  TGI: 10.5 µM
786-0; 786-0, 48 h
  IC50: 9.55 µM
786-0; 786-0, time 48 hrs
  GI50: 5.13 µM
  TGI: 31.6 µM
[1]
  GI50: 3.8 µM
SK-MEL-5; SK-MEL-5, 48 h
  IC50: 6.03 µM
SK-MEL-5; SK-MEL-5, time 48 hrs
  GI50: 3.16 µM
  TGI: 13.8 µM
SK-MEL-5; SK-MEL-5, time 48 hrs, read-out: LC50 (the source's name)
  CC50: 4.33 µM
HOP-92; HOP-92, 48 h
  IC50: 26.9 µM
HOP-92; HOP-92, time 48 hrs
  GI50: 2.88 µM
  TGI: 17 µM
CCRF-CEM; 48 h
  IC50: 5.37 µM
CCRF-CEM; time 48 hrs
  GI50: 3.63 µM
  TGI: 100 µM
CCRF-CEM; [4]
  CC50: 4 µM
SW-620; SW-620, 48 h
  IC50: 3.09 µM
SW-620; SW-620, time 48 hrs
  GI50: 2.51 µM
  TGI: 10.5 µM
SW-620; SW-620, time 48 hrs, read-out: LC50 (the source's name)
  CC50: 4.28 µM
SNB-19; SNB-19, 48 h
  IC50: 15.8 µM
SNB-19; SNB-19, time 48 hrs
  GI50: 6.92 µM
  LC50: 4 µM
  TGI: 29.5 µM
NCI/ADR-RES; 48 h
  IC50: 3.8 µM
NCI/ADR-RES; time 48 hrs
  GI50: 2.09 µM
  TGI: 6.03 µM
NCI/ADR-RES; [4]
  CC50: 4 µM
HL-60(TB); HL-60, 48 h
  IC50: 5.32 µM
HL-60(TB); HL-60, time 48 hrs
  GI50: 5.57 µM
  TGI: 5.11 µM
HL-60(TB); HL-60, time 48 hrs, read-out: LC50 (the source's name)
  CC50: 4.07 µM
NCI-H522; NCI-H522, 48 h
  IC50: 9.55 µM
NCI-H522; NCI-H522, time 48 hrs
  GI50: 3.02 µM
  TGI: 13.2 µM
NCI-H522; NCI-H522, time 48 hrs, read-out: LC50 (the source's name)
  CC50: 4.15 µM
[2]
  GI50: 5.13 µM
MDA-MB-468; MDA-MB-468, 48 h
  IC50: 5.89 µM
MDA-MB-468; MDA-MB-468, time 48 hrs
  GI50: 2.04 µM
  TGI: 7.59 µM
MDA-MB-468; MDA-MB-468, time 48 hrs, read-out: LC50 (the source's name)
  CC50: 4.32 µM
U-251; U-251, 48 h
  IC50: 5.13 µM
U-251; U-251, time 48 hrs
  GI50: 3.24 µM
  LC50 (concentration killing 50% of cells): 4.21 µM
  TGI: 14.8 µM
SF-268; SF-268, 48 h
  IC50: 12.3 µM
SF-268; SF-268, time 48 hrs
  GI50: 5.62 µM
  TGI: 22.4 µM
SF-268; SF-268, time 48 hrs, read-out: LC50 (the source's name)
  CC50: 4.15 µM
SNB-75; SNB-75, 48 h
  IC50: 11.2 µM
SNB-75; SNB-75, time 48 hrs
  GI50: 2.34 µM
  LC50: 4.18 µM
  TGI: 11.5 µM
SN12C; 48 h
  IC50: 7.59 µM
SN12C; time 48 hrs
  GI50: 4.27 µM
  TGI: 20 µM
SN12C; [4]
  CC50: 4.08 µM
UACC-62; UACC-62, 48 h
  IC50: 12.9 µM
UACC-62; UACC-62, time 48 hrs
  GI50: 5.01 µM
  LC50 (50% lethal concentration): 4.16 µM
  TGI: 21.9 µM
RXF 393; RXF 393, 48 h
  IC50: 5.01 µM
RXF 393; RXF 393, time 48 hrs
  GI50: 1.78 µM
  TGI: 6.17 µM
RXF 393; RXF 393, time 48 hrs, read-out: LC50 (the source's name)
  CC50: 4.32 µM
SF-539; SF-539, 48 h
  IC50: 6.03 µM
SF-539; SF-539, time 48 hrs
  GI50: 3.39 µM
  LC50 (concentration killing 50% of cells): 4 µM
  TGI: 14.8 µM
[3]
  GI50: 4.47 µM
NCI-H226; NCI-H226, 48 h
  IC50: 25.1 µM
NCI-H226; NCI-H226, time 48 hrs
  GI50: 10.5 µM
  TGI: 27.5 µM
Tubulin (Homo sapiens)
  inhibition: Active
SF-295; SF-295, 48 h
  IC50: 5.25 µM
SF-295; SF-295, time 48 hrs
  GI50: 3.09 µM
  TGI: 15.5 µM
SF-295; SF-295, time 48 hrs, read-out: LC50 (the source's name)
  CC50: 4 µM
HOP-62; HOP-62, 48 h
  IC50: 12.3 µM
HOP-62; HOP-62, time 48 hrs
  GI50: 4.47 µM
  TGI: 16.6 µM
K562; K562, 48 h
  IC50: 3.55 µM
K562; K562, time 48 hrs
  GI50: 2.95 µM
  TGI: 21.4 µM
K562; K562, time 48 hrs, read-out: LC50 (the source's name)
  CC50: 4 µM
